This is an account of results in patent publication US20250215017A1, “TGF-ß INHIBITOR COMPOUND AND USE THEROF” (Medinno Pharmaceutical Technology (Zhuhai) Co., Ltd., priority 2022, published 2025).

Each structure is given as a SMILES string.

The term IC50 denotes the concentration needed to halve the response being measured. Higher therefore signals lower potency.

In this assay the target is human TGFβR1 (Homo sapiens (Human), UniProt P36897). Kind of assay: ADP-Glo kinase activity assay: TGFβR1 phosphorylates TGFβR1tide. To be noted: ATP 5 uM, TGFβR1 0.5 ng/ul, TGFβR1tide 0.1 ug/ul, 60 minutes at room temperature. The class given is biochemical. The procedure: The principle of the activity assay was that TGFβR1 phosphorylates the substrate TGFβR1tide, consuming ATP in the process. This experiment employed the ADP-Glo method to detect kinase activity and determine the IC50 value, which was used to evaluate the inhibitory ability of the test compounds against human TGFβR1. In the experiment, DSM was used as a negative control, and LY364947 was used as a positive control. The specific experimental steps were as follows. Compounds were diluted 4-fold in DMSO in a dilution plate, with the final starting concentration of the compounds being 10 μM, across 10 concentration gradient points. The compounds were then further diluted 50-fold into the kinase reaction buffer and incubated on a shaker for 20 minutes. Kinase was formulated with an enzyme reaction buffer. 2 μl kinase was added to each well of the reaction plate. 1 μl of the compound diluted in buffer was added to each well, and then the plate was sealed with a sealing membrane and centrifuged at 1000 g for 30 seconds, leaving it at room temperature for 10 minutes. Solutions of TGFβR1tide and ATP were prepared with the kinase reaction buffer, and 2 μL of the TGFβR1tide/ATP solution was added to the reaction plate. The plate was sealed with a sealing film and centrifuged at 1000 g for 30 seconds. It was allowed to react at room temperature for 60 minutes. Subsequently, 4 μL of ADP-Glo was transferred to a 384-well reaction plate and centrifuged at 1000 rpm/min for 1 minute, followed by incubation at 25° C. for 40 minutes. Then, 8 μL of Detection solution was transferred to the 384-well reaction plate and centrifuged at 1000 rpm/min for 1 minute, after which it was incubated at 25° C. for 40 minutes. The RLU (Relative Luminescence Unit) signal was read using a BMG microplate reader, which was used to characterize the degree of kinase activity.
3.1 The inhibition rate was calculated as follows: inhibition rate of compound (% inh)=100%−(compound−positive control)/(negative control−positive control)*100%.
The IC50 (half inhibition concentration) of a compound was obtained using the following non-linear fitting equation, wherein data analysis was performed using Graphpad 7.0 software.
• 3.3.1 After an experimenter completed the report writing, another experimenter conducted a second inspection to ensure the accuracy of data analysis. • 3.3.2 Data were exported from BMG and analyzed manually. • 3.3.2.1 The ratios were converted to inhibition rates and IC50 was calculated by Prism GraphPad 7.0 from the inhibition rates. • 3.3.2.2 IC50 was calculated again by the ratios to verify accuracy of the results.
(ADP-Glo first removes unused ATP, then detects ADP through luciferase.)

Chain of human TGFβR1 (P36897 34-503): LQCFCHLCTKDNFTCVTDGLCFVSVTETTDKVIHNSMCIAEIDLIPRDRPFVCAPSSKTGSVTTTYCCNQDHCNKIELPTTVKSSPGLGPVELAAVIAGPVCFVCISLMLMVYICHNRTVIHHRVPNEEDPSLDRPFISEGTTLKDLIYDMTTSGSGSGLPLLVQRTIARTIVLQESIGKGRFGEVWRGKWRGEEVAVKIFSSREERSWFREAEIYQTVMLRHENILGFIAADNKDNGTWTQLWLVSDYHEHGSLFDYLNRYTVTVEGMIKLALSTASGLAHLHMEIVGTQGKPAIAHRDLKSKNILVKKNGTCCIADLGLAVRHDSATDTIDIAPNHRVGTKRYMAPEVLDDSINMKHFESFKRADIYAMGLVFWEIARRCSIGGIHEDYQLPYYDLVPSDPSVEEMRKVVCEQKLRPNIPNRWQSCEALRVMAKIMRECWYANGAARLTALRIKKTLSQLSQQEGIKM

Compound `Cc1cccc(-c2nc3n(c2-c2ccc4ncsc4c2)CC2CC32)n1` (stereo not drawn) [Compound 21, 6-(2-(6-Methylpyridin-2-yl)-5,5a,6,6a-tetrahydrocyclopropane[3,4]pyrrolo[1,2-a]imidazol-3-yl)benzo[d]thiazole] returned a concentration for half-maximal inhibition (IC50) of 0.006 µM. `Cc1cccc(-c2nc3n(c2-c2ccc4[nH]ncc4c2)CC2CC32)n1` (stereo not drawn) [Compound 5, 3-(1H-Indazol-5-yl)-2-(6-methylpyridin-2-yl)-5,5a,6,6a-tetrahydrocyclopropane[3,4]pyrrolo[1,2-a]imidazole]: the IC50 amounted to 0.015 µM. Take `Cc1cccc(-c2nc3n(c2-c2ccn4nccc4c2)CC2CC32)n1` (stereo not drawn) [Compound 36, 2-(6-Methylpyridin-2-yl)-3-(pyrazolo[1,5-a]pyridin-5-yl)-5,5a,6,6a-tetrahydrocyclopropyl[3,4]pyrrolo[1,2-a]imidazole]: the IC50 turned out to be 0.013 µM. Then `Cc1cccc(-c2nc3n(c2-c2ccnc(-c4nc5c([nH]4)CNC5)c2)CC2CC32)n1` (stereo not drawn) [Compound 8, 2-(6-Methylpyridin-2-yl)-3-(2-(1,4,5,6-tetrahydropyrrolo[3,4-d]imidazol-2-yl)pyridin-4-yl)-5,5a,6,6a-tetrahydrocyclopropane[3,4]pyrrolo[1,2-a]imidazole], with 0.022 µM; and `Cc1cccc(-c2nc3n(c2-c2ccc4nccn4c2)CC2CC32)n1` (stereo not drawn) [Compound 19, 3-(Imidazolo[1,2-a]pyridin-6-yl)-2-(6-methylpyrridin-2-yl)-5,5a,6,6a-tetrahydrocyclopropane[3,4]pyrrolo[1,2-a]imidazole], with 0.05 µM; and `Cc1cccc(-c2nc3n(c2-c2ccc4nc[nH]c4c2)CC2CC32)n1` (stereo not drawn) [Compound 35, 3-(1H-Benzo[d]imidazol-6-yl)-2-(6-methylpyridin-2-yl)-5,5a,6,6a-tetrahydrocyclopropyl[3,4]pyrrolo[1,2-a]imidazole], with 0.012 µM. On to `Cc1cccc(-c2nc3n(c2-c2ccc4ncnn4c2)CC2CC32)n1` (stereo not drawn) [Compound 18, 3-([1,2,4]Triazolyl[1,5-a]pyridin-6-yl)-2-(6-methylpyridin-2-yl)-5,5a,6,6a-tetrahydrocyclopropane[3,4]pyrrolo[1,2-a]imidazole], for which the midpoint of inhibition, the IC50, lay at 0.0056 µM.

The compound `Cc1cccc(-c2nc3n(c2-c2ccc4ncn(C)c4c2)CC2CC32)n1` (stereo not drawn) [Compound 16, 3-(1-Methyl-1H-benzo[d]imidazol-6-yl)-2-(6-methylpyridin-2-yl)-5,5a,6,6a-tetrahydrocyclopropane[3,4]pyrrolo[1,2-a]imidazole] came in with an IC50 of 0.0049 µM. As for `Cc1cccc(-c2nc3n(c2-c2ccc4ncoc4c2)CC2CC32)n1` (stereo not drawn) [Compound 20, 6-(2-(6-Methylpyridin-2-yl)-5,5a,6,6a-tetrahydrocyclopropane[3,4]pyrrolo[1,2-a]imidazol-3-yl)benzo[d]oxazole], the IC50 is 0.038 µM.
